Entries after “also recorded” stand apart in the source; their conditions may differ.
Assays:
[1] = test system: Human corneal epithelial (HCE) cells; assay: In vitro scratch assay, HCE cells; format: cell-based; conditions: compared with scrambled peptide control (SP1)
Experimental: Human corneal epithelial (HCE) cells were cultured in a Medium Essential Media (MEM; Gibco, Life Technologies, Carlsbad, Calif.). HeLa cells were maintained in Dulbecco's Modified Eagle's Medium (DMEM; Life Technologies, Grand Island, N.Y.). Both media were supplemented with 10% fetal bovine serum (Gibco, Life Technologies, Carlsbad, Calif.) and 1% penicillin-streptomycin (Gibco, Life Technologies, Carlsbad, Calif.). […]
In Vitro Scratch Assay. […] The wound area at each time-point was measured using Image J software (Image J 1.47v, NIH, Thornwood, Bethesda, Md.). Relative wound closure was calculated by dividing the closure of the treated wound by that of the untreated wound. […]
A cell sprouting assay using HCE cells embedded as a spot in growth factor reduced solubilized basement membrane sold under the tradename MATRIGEL® (Corning Life Sciences, Tewksbury, Mass.) was used to determine if HST5 could promote epithelial cell migration. […] Time-lapse microscopy was performed and wound areas were analyzed at different time points. […]
Wound closure rates of the three salt forms were also analyzed in accordance with the methods disclosed herein. In particular, human corneal epithelial cells were scratched using standardized scratch assays and rates of wound healing were measured after application of the acetic acid, hydrochloride and trifluoroacetate salt forms of SHRGY (SEQ ID NO:2).

[2] = test system: pERK1/2; assay: Western blot for pERK1/2 after wounding; format: cell-based; conditions: wounded cells, compared with wounding alone
Experimental: Western Blot. Western blot was performed following standard methods. Protein lysate (20 μg) was boiled in NuPAGE™ LDS sample buffer (Invitrogen, Carlsbad, Calif.) for 10 minutes and then subjected to electrophoresis on 12% NuPAGE™ Bis-Tris gels (Invitrogen, Carlsbad, Calif.), followed by transfer to nitrocellulose membranes (Amersham Protran, GE Healthcare, Pittsburgh, Pa.). Membranes were then blocked with Tris-buffered saline containing 3% nonfat dry milk for 1 hour and incubated with primary antibody against pERK1/2 (Cell Signaling, Danver, Mass.) (1:1000) overnight at 4° C. After washing in 0.05% Tris-buffered saline containing 0.05% polysorbate 20, membranes were then incubated for 1 hour with goat anti-rabbit-HRP (BD Biosciences, San Jose, Calif.) (1:2000) as the secondary antibody. The membranes were developed using X-ray film and ECL Pro solution (PerkinElmer, Waltham, Mass.). Beta-actin was used as an internal control.
The level of activation/phosphorylation of ERK with and without wounding and with and without Hst5 application were investigated to determine whether the cellular signaling pathways underpinning the pro-migratory effects of Hst5 were similar to those of Hst1 in other epithelial cell types. Wounding causes an increased in phosphorylated form of ERK1/2 (p-ERK1/2). […]

[3] = test system: p-ERK1/2; assay: Immunofluorescence imaging of p-ERK1/2 in scratched HCE monolayer; format: cell-based, Human; conditions: 80 μM, 45 minutes
Experimental: Immunofluorescence Imaging. HCE cells were seeded in 8-well chamber slide at 9×10^4 (cells/well) seeding density, and allowed to incubate to form a confluent monolayer. Subsequently, a straight-line scratch mark was made with a sterile P10 pipette tip. The cells were then washed with media to remove cellular debris. Wounded areas were subsequently left untreated or treated with Hst5, SP1 or SP2 at 80 μM concentrations in MEM media with 0.5% FBS for 45 minutes. Cells were then fixed with 4% paraformaldehyde for 30 minutes and permeabilized with 0.1% Triton X-100 for 5 minutes. After washing with PBS, cells were incubated at room temperature for 30 minutes with 5% bovine serum albumin (BSA) and 5% normal goat serum in PBS. Cells were subsequently incubated with primary antibodies diluted in 1% BSA against p-ERK1/2 (1:200) (Cell Signaling, Danver, Mass.) at 4° C. for 16 hours. After three washings with PBS, cells were incubated with fluorescein isothiocyanate-conjugated sheep anti-rabbit IgG antibody (BD Biosciences, San Jose, Calif.) (1:500) diluted in 1% BSA at room temperature for 60 minutes. After extensive washing with PBS, the cells were then stained with 4′,6-diamidino-2-phenylindole (DAPI; (Roche, Mannheim, GE) for 2 minutes for nuclear staining. The cells were mounted in Fluoro gel with Tris buffer (Electron Microscopy Sciences, Hattfield, Pa.) and observed under a confocal microscope (Zeiss LSM 710 Confocal Microscope, Oberkochen, Germany) using a 10× objective.
The level of activation/phosphorylation of ERK with and without wounding and with and without Hst5 application were investigated to determine whether the cellular signaling pathways underpinning the pro-migratory effects of Hst5 were similar to those of Hst1 in other epithelial cell types. Wounding causes an increased in phosphorylated form of ERK1/2 (p-ERK1/2). Immunolocalization was used to determine whether Hst5 application to a scratched sheet of epithelium would affect pERK1/2 levels.

[4] = test system: HCE cells; assay: Cell sprouting assay, HCE cells embedded in MATRIGEL; format: cell-based, Human; conditions: 50 μM, 72 hours, compared to vehicle only control
Experimental: Cell Sprouting Assay. A cell sprouting assay was performed using HCE cells in a solubilized basement membrane sold under the tradename MATRIGEL® (reduced and diluted in MEM 1:1; Corning Life Sciences, Tewksbury, Mass.). HCE cells were embedded in the solubilized basement membrane at 5×10^5 cells/10 μL spot. The cell spotted plates were then exposed to reduced serum media (0.5% FBS) (untreated negative control), Hst5 (50 μM), or 10% FBS (positive control). HCE cell migration was then followed with time lapse microscopy and imaged at 4× (Image Express Micro; Molecular Devices, CA). Cell covered area at a given time point was measured using Image J.
A cell sprouting assay using HCE cells embedded as a spot in growth factor reduced solubilized basement membrane sold under the tradename MATRIGEL® (Corning Life Sciences, Tewksbury, Mass.) was used to determine if HST5 could promote epithelial cell migration. […] A standardized scratch assay using the HCLE cell line tested the effects of Hst5 on cell migration. HCLE cells were grown to confluence and mechanically scratched using a pipette tip. Cells were treated with different concentrations (20, 50, 80 and 100 μM) of Hst5 or left untreated as a control. Time-lapse microscopy was performed and wound areas were analyzed at different time points. […] The most significant increase in scratch closure rates was noticed at 50 μM. […]

**Q.** Which results are given for DSHAKRHHGYKRKFHEKHHSHRGY [Hst5]?
**A.** concentration of statistically significant peak effect on scratch closure [1]: 80 µM; pERK1/2 levels (Western blot) [2]: further increased; pERK1/2 immunolocalization / signal intensity [3]: increased signal intensity of phosphorylated ERK1/2; also recorded: elevated immunolocalization of pERK1/2; cell migration (cell sprouting) [4]: statistically significant increase in cell migration

— patent US20230027620A1, “PENTAPEPTIDE AND METHODS OF USE THEREOF” (THE BOARD OF TRUSTEES OF THE UNIVERSITY OF ILLINOIS, priority 2019, published 2023)
